Assay results published in patent publication US9296734B2 (AMGEN INC., priority 2013, dated 2016).
Where two headings read alike, the source gives them in different places.

Tests used:
[1] = target: Beta Secretase enzyme (BACE) (Homo sapiens (Human), UniProt P56817); experiment: In vitro enzymatic BACE FRET assay; assay type: biochemical; settings: read-out: BACE 1 FRET assay IC50
Procedure: In Vitro Enzymatic BACE FRET (Fluorescence Resonance Energy Transfer) Assay (Enzyme Assay Data in the Example Table I)
The assay buffer used in this screen is 0.05 M acetate, pH 4.2, 10% DMSO final, 100 uM genapol (which is a nonionic detergent, below its Critical Micelle Concentration). […] This assay is effectively started by the addition of FRET substrate (50 nM) and the combination is incubated for one hour. The FRET assay is terminated with by addition of Tris buffer, which raises the pH to neutrality, and the fluorescence is determined. The FRET substrate is a peptide with commercially available fluorophore and quencher, on opposite sides of the BACE cleavage site.

[2] = system: Aβ40 in conditioned medium of cells stably expressing Amyloid Precursor Protein (APP); experiment: In vitro BACE cell-based assay (Aβ40 sandwich ELISA); settings: Homo sapiens
Procedure: In Vitro BACE Cell-Based Assay
The cell-based assay measures inhibition or reduction of Aβ40 in conditioned medium of test compound treated cells expressing amyloid precursor protein.
Cells stably expressing Amyloid Precursor Protein (APP) were plated at a density of 40K cells/well in 96 well plates (Costar). The cells were cultivated for 24 hours at 37° C. and 5% CO2 in DMEM supplemented with 10% FBS. The test compounds were then added to cells in 10-point dose response concentrations with the starting concentration being either 100 μM or 10 μM. The compounds were diluted from stock solutions in DMSO and the final DMSO concentration of the test compounds on cells was 0.1%. After 24 h of incubation with the test compounds the supernatant conditioned media was collected and the Aβ 40 levels were determined using a sandwich ELISA. The IC50 of the compound was calculated from the percent of control or percent inhibition of Aβ 40 as a function of the concentration of the test compound.
The sandwich ELISA to detect Aβ 40 was performed in 96 well microtiter plates, which were pre-treated with goat anti-rabbit IgG (Pierce). The capture and detecting antibody pair that were used to detect Aβ 40 from cell supernatants were affinity purified pAb40 (Biosource) and biotinylated 6E10 (Signet Labs Inc.), respectively. The optimal concentration for the pAb40 antibody was 3 μg/ml in Superblock/TBS (Pierce) that was supplemented with 0.05% Tween 20 (Sigma).
Cellular supernatants were incubated with the capture antibody for 3 h at 4° C., followed by 3 wash steps in TBS-tween (0.05%). The detecting antibody incubation was for 2 h at 4° C., again followed by the wash steps as described previously. The final readout of the ELISA is Time-Resolved Fluorescence (counts per minute) using Delfia reagents Streptavidin-Europium and Enhancement solutions (Perkin Elmer) and the Victor 2 multilabel counter (Perkin Elmer).

Cathepsin D (Cat D) = Cathepsin D (Cat D) (Homo sapiens (Human), UniProt P07339); experiment: In vitro enzymatic Cathepsin D (Cat D) FRET assay; assay type: biochemical; settings: read-out: CatD IC50
Sequence of Cathepsin D (Cat D) (P07339 65-412, species assumed): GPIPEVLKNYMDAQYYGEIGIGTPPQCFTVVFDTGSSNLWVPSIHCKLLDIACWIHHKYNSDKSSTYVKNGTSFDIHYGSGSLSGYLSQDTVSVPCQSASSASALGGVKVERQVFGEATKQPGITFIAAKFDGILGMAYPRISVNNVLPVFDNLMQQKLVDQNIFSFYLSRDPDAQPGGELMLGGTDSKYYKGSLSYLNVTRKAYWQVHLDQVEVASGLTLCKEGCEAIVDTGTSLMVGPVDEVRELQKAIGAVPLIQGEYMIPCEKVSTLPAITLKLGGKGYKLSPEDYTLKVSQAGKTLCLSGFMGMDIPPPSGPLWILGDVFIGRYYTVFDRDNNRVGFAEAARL
Summary of the method: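 CHO-expressed recombinant Cat D cleaves a fluorophore/quencher FRET peptide (20 nM) in 0.05 M citrate pH 3.5, 5 mM CHAPS, 10% DMSO final, over 1 h. Tris addition neutralizes pH to stop the reaction; fluorescence read at excitation 500 nm, emission 580 nm.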

[3] = HEK293, average IC50, HEK cells, read-out: HEK cell assay IC50
[4] = HEK293, read-out: HEK cell assay IC50
[5] = HEK293, HEK cells, average, read-out: HEK cell assay IC50
[6] = average IC50, BACE enzyme assay
[7] = HEK293, average IC50, HEK cell assay, read-out: HEK cell assay IC50
[8] = average IC50, cathepsin D enzyme assay

Sequence of Beta Secretase enzyme (BACE) (P56817 46-501): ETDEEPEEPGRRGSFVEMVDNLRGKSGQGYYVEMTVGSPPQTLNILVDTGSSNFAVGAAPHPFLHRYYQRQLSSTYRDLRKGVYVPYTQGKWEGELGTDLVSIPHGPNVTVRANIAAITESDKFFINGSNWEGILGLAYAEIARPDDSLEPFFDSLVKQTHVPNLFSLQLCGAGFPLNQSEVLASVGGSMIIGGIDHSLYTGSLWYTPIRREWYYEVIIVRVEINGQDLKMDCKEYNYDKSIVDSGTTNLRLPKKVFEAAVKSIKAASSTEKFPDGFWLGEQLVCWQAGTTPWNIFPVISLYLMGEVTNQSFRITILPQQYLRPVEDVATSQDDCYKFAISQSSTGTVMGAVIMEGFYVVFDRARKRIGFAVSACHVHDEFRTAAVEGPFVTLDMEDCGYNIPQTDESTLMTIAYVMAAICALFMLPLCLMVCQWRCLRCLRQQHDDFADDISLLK

| IC50 ([1]; average IC50) [µM] | IC50 [2, 3] [µM] | IC50 (Cathepsin D (Cat D); average IC50) [µM] | IC50 ([1]; average) [µM] | IC50 (Cathepsin D (Cat D); average) [µM] | SMILES | also measured |
| --- | --- | --- | --- | --- | --- | --- |
| 0.171 | 0.639 | 1790 | – | – | N#Cc1ccc(C(=O)Nc2cnc(F)c([C@]3(CF)C[C@@H](C(F)(F)F)OC(N)=N3)c2)nc1 [Example 141, N-(5-((4S,6S)-2-amino-4-(fluoromethyl)-6-(trifluoromethyl)-5,6-dihydro-4H-1,3-oxazin-4-yl)-6-fluoropyridin-3-yl)-5-cyanopicolinamide] | – |
| 1.76 | 0.909 | > 400 | – | – | Cc1cc(Cl)cnc1C(=S)Nc1ccc(F)c([C@]2(CF)C[C@@H](C(F)(F)F)OC(N)=N2)c1 [Example 90, N-(3-((4S,6S)-2-amino-4-(fluoromethyl)-6-(trifluoromethyl)-5,6-dihydro-4H-1,3-oxazin-4-yl)-4-fluorophenyl)-5-chloro-3-methylpyridine-2-carbothioamide] | – |
| – | – | – | 0.048 | 780 | COc1cnc(C(=O)Nc2cc(C)c(F)c([C@]3(CF)C[C@@H](C(F)(F)F)OC(N)=N3)c2)c(C)c1 [Example 226, N-(3-((4S,6S)-2-amino-4-(fluoromethyl)-6-(trifluoromethyl)-5,6-dihydro-4H-1,3-oxazin-4-yl)-4-fluoro-5-methylphenyl)-5-methoxy-3-methylpicolinamide] | IC50 [2, 5]: 0.049 µM |
| 0.0123 | 0.0049 | > 400 | – | – | C[C@@]1(c2cc(NC(=O)c3ccc(Cl)cn3)ccc2F)C[C@@H](C(F)(F)F)OC(N)=N1 [Example 26, N-(3-((4S,6S)-2-amino-4-methyl-6-(trifluoromethyl)-5,6-dihydro-4H-1,3-oxazin-4-yl)-4-fluorophenyl)-5-chloropicolinamide] | – |
| 0.0552 | 0.0391 | > 400 | – | – | Cc1cc(Cl)cnc1C(=O)Nc1cnc(F)c([C@]2(C)C[C@@H](C(F)(F)F)OC(N)=N2)c1 [Example 61, N-(5-((4S,6S)-2-amino-4-methyl-6-(trifluoromethyl)-5,6-dihydro-4H-1,3-oxazin-4-yl)-6-fluoropyridin-3-yl)-5-chloro-3-methylpicolinamide] | – |
| – | – | – | 0.021 | > 400 | C[C@@]1(c2cc(NC(=O)c3cnc(OCC(F)(F)F)cn3)cc(F)c2F)C[C@@H](C(F)(F)F)OC(N)=N1 [Example 186, N-(3-((4S,6S)-2-amino-4-methyl-6-(trifluoromethyl)-5,6-dihydro-4H-1,3-oxazin-4-yl)-4,5-difluorophenyl)-5-(2,2,2-trifluoroethoxy)pyrazine-2-carboxamide] | IC50 [2, 5]: 0.015 µM |
| 0.0254 | 0.0084 | 609 | – | – | C#CCOc1cnc(C(=O)Nc2ccc(F)c([C@]3(C)C[C@@H](C(F)(F)F)OC(N)=N3)n2)cn1 [Example 87, N-(6-((4S,6S)-2-amino-4-methyl-6-(trifluoromethyl)-5,6-dihydro-4H-1,3-oxazin-4-yl)-5-fluoropyridin-2-yl)-5-(prop-2-yn-1-yloxy)pyrazine-2-carboxamide] | – |
| 0.03 | – | > 400 | – | – | COc1cnc(C(=O)Nc2ccc(F)c([C@]3(C)C[C@@H](C(F)(F)F)OC(N)=N3)c2)cn1 [Example 27, N-(3-((4S,6S)-2-amino-4-methyl-6-(trifluoromethyl)-5,6-dihydro-4H-1,3-oxazin-4-yl)-4-fluorophenyl)-5-methoxypyrazine-2-carboxamide] | – |

Further lines, the molecule ahead of its results:

| SMILES | IC50 ([1]; average IC50) [µM] | IC50 [2, 3] [µM] | IC50 (Cathepsin D (Cat D); average IC50) [µM] | IC50 ([1]; average) [µM] | IC50 (Cathepsin D (Cat D); average) [µM] | also measured |
| --- | --- | --- | --- | --- | --- | --- |
| Cc1cc(OCC(F)(F)F)cnc1C(=O)Nc1cc(C)c(F)c([C@]2(CF)C[C@@H](C(F)(F)F)OC(N)=N2)c1 [Example 220, N-(3-((4S,6S)-2-amino-4-(fluoromethyl)-6-(trifluoromethyl)-5,6-dihydro-4H-1,3-oxazin-4-yl)-4-fluoro-5-methylphenyl)-3-methyl-5-(2,2,2-trifluoroethoxy)picolinamide] | – | – | – | 0.066 | 263 | IC50 [2, 4]: 0.429 µM |
| C[C@@]1(c2nc(NC(=O)c3nn(C(F)F)cc3Cl)ccc2F)C[C@@H](C(F)(F)F)OC(N)=N1 [Example 88, N-(6-((4S,6S)-2-amino-4-methyl-6-(trifluoromethyl)-5,6-dihydro-4H-1,3-oxazin-4-yl)-5-fluoropyridin-2-yl)-4-chloro-1-(difluoromethyl)-1H-pyrazole-3-carboxamide] | – | – | – | – | – | IC50 [1, 6]: 0.032 µM; IC50 [2, 7]: 0.01 µM; IC50 (Cathepsin D (Cat D); [8]): 712 µM |
| Cc1cc(C#N)cnc1C(=O)Nc1cnc(F)c([C@]2(CF)C[C@@H](C(F)(F)F)OC(N)=N2)c1 [Example 140, N-(5-((4S,6S)-2-amino-4-(fluoromethyl)-6-(trifluoromethyl)-5,6-dihydro-4H-1,3-oxazin-4-yl)-6-fluoropyridin-3-yl)-5-cyano-3-methylpicolinamide] | 0.113 | 0.338 | > 400 | – | – | – |
| NC1=N[C@](CF)(c2cc(Oc3cc(Br)cc(Cl)n3)ccc2F)C[C@@H](C(F)(F)F)O1 [Example 98] | 1.95 | 2.9 | > 400 | – | – | – |
| Cn1cc(NC(=O)c2ccc(Cl)cn2)cc([C@]2(C)C[C@@H](C(F)(F)F)OC(N)=N2)c1=O [Example 148, N-(5-((4S,6S)-2-amino-4-methyl-6-(trifluoromethyl)-5,6-dihydro-4H-1,3-oxazin-4-yl)-1-methyl-6-oxo-1,6-dihydropyridin-3-yl)-5-chloropicolinamide] | 0.366 | – | > 400 | – | – | IC50 [2, 4]: 0.0127 µM |
| CC#CCOc1cnc(C(=O)Nc2ccc(F)c([C@]3(CF)C[C@@H](C(F)(F)F)OC(N)=N3)c2)cn1 [Example 39, N-(3-((4S,6S)-2-amino-4-(fluoromethyl)-6-(trifluoromethyl)-5,6-dihydro-4H-1,3-oxazin-4-yl)-4-fluorophenyl)-5-(but-2-yn-1-yloxy)pyrazine-2-carboxamide] | – | – | – | – | – | IC50 [1, 6]: 0.0007 µM; IC50 [2, 7]: 0.0032 µM; IC50 (Cathepsin D (Cat D); [8]): > 400 µM |
| C#CCOc1cnc(C(=O)Nc2cc(F)c(F)c([C@]3(C)C[C@@H](C(F)(F)F)OC(N)=N3)c2)cn1 [Example 190, N-(3-((4S,6S)-2-amino-4-methyl-6-(trifluoromethyl)-5,6-dihydro-4H-1,3-oxazin-4-yl)-4,5-difluorophenyl)-5-(prop-2-yn-1-yloxy)pyrazine-2-carboxamide] | – | – | – | 0.002 | 505 | IC50 [1, 6]: > 40 µM; IC50 [2, 5]: 0.002 µM; IC50 [2, 7]: > 15.6 µM; IC50 (Cathepsin D (Cat D); [8]): > 400 µM |
| C#CCOc1cnc(C(=O)Nc2cc(Cl)c(F)c([C@]3(C)C[C@@H](C(F)(F)F)OC(N)=N3)c2)cn1 [Example 212, N-(3-((4S,6S)-2-amino-4-methyl-6-(trifluoromethyl)-5,6-dihydro-4H-1,3-oxazin-4-yl)-5-chloro-4-fluorophenyl)-5-(prop-2-yn-1-yloxy)pyrazine-2-carboxamide] | – | – | – | < 0.002 | 554 | IC50 [2, 5]: 0.001 µM |
| NC1=N[C@](CF)(c2cc(Oc3ncc(Cl)cc3F)ccc2F)C[C@@H](C(F)(F)F)O1 [Example 95, (4S,6S)-4-(5-((5-chloro-3-fluoropyridin-2-yl)oxy)-2-fluorophenyl)-4-(fluoromethyl)-6-(trifluoromethyl)-5,6-dihydro-4H-1,3-oxazin-2-amine] | 2.89 | 2.59 | > 400 | – | – | – |
| C[C@@]1(c2cc(NC(=O)c3ncc(Br)cc3Cl)cc(F)c2F)C[C@@H](C(F)(F)F)OC(N)=N1 [Example 240, N-(3-((4S,6S)-2-amino-4-methyl-6-(trifluoromethyl)-5,6-dihydro-4H-1,3-oxazin-4-yl)-4,5-difluorophenyl)-5-bromo-3-chloropicolinamide] | – | – | – | 0.02 | 928 | IC50 [2, 4]: 0.022 µM |
| NC1=N[C@](CF)(c2cc(Oc3cc(-c4ccccc4)ccn3)ccc2F)C[C@@H](C(F)(F)F)O1 [Example 102, (4S,6S)-4-(2-fluoro-5-((4-phenylpyridin-2-yl)oxy)phenyl)-4-(fluoromethyl)-6-(trifluoromethyl)-5,6-dihydro-4H-1,3-oxazin-2-amine] | – | – | 114 | – | – | IC50 [2, 4]: 2.82 µM |
